Assays:
[1] = tested on: oval-leafed pondweed; assay: Test Example 1: herbicidal activity, application before weed generation under submerged conditions (Table 16, symbol C); type: in vivo, oval-leafed pondweed (Monochoria vaginalis); conditions: amount of applied herbicide 320 g/ha
Summary of the method: (§1)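 Submerged Wagner pots (alluvial soil, 4 cm water) sown with weed seeds and planted with 2.5-leaf rice seedlings; emulsifiable concentrate diluted in water applied to water surface on sowing day. Held in greenhouse at 25-30 °C; injury scored 0-5 by herbicidal rate after three weeks.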

[2] = tested on: velvetleaf; assay: Test Example 5: herbicidal effect by foliage application, plastic box (Table 20, symbol M); type: in vivo, velvetleaf (Abutilon theophrasti); conditions: foliage application, 320 g/ha, three weeks after application
Summary of the method: (§2)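 Foliar spray test: emulsion formulation diluted in water to a set application rate, sprayed onto 14-day-old plants raised in diluvial soil at 25° C to 30° C under glass. Both herbicidal effect and crop effect rated visually three weeks later.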

[3] = tested on: green foxtail; assay: Test Example 4: herbicidal effect by soil treatment (Table 19, symbol G); type: in vivo, green foxtail (Setaria viridis); conditions: amount of applied herbicide 320 g/ha
Summary of the method: (§3)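 Herbicidal effect was rated 3 weeks after treatment, using the scoring criteria of an earlier test. The compound, formulated as an emulsion and diluted in water to a set herbicide amount, had been sprayed uniformly on soil over freshly sown seeds. Growth took place in a greenhouse at 25° C. to 30° C.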

[4] = tested on: Italian ryegrass; assay: Test Example 4: herbicidal effect by soil treatment (Table 19, symbol K); type: in vivo, Italian ryegrass (Lolium multiflorum); conditions: amount of applied herbicide 320 g/ha
Summary of the method: as §3

[5] = tested on: Italian ryegrass; assay: Test Example 5: herbicidal effect by foliage application, plastic box (Table 20, symbol K); type: in vivo, Italian ryegrass (Lolium multiflorum); conditions: foliage application, 320 g/ha, three weeks after application
Summary of the method: as §2

[6] = tested on: Japanese bulrush; assay: Test Example 1: herbicidal activity, application before weed generation under submerged conditions (Table 16, symbol B); type: in vivo, Japanese bulrush (Schoenoplectus juncoides); conditions: amount of applied herbicide 320 g/ha
Summary of the method: as §1

[7] = tested on: wild oat; assay: Test Example 4: herbicidal effect by soil treatment (Table 19, symbol I); type: in vivo, wild oat (Avena fatua); conditions: amount of applied herbicide 320 g/ha
Summary of the method: as §3

[8] = tested on: windgrass; assay: Test Example 5: herbicidal effect by foliage application, plastic box (Table 20, symbol L); type: in vivo, windgrass (Apera spica-venti); conditions: foliage application, 320 g/ha, three weeks after application
Summary of the method: as §2

[9] = tested on: green foxtail; assay: Test Example 5: herbicidal effect by foliage application, plastic box (Table 20, symbol G); type: in vivo, green foxtail (Setaria viridis); conditions: foliage application, 320 g/ha, three weeks after application
Summary of the method: as §2

[10] = tested on: persian speedwell; assay: Test Example 4: herbicidal effect by soil treatment (Table 19, symbol R); type: in vivo, Persian speedwell (Veronica persica); conditions: amount of applied herbicide 320 g/ha
Summary of the method: as §3

[11] = tested on: southern crabgrass; assay: Test Example 4: herbicidal effect by soil treatment (Table 19, symbol F); type: in vivo, southern crabgrass (Digitaria ciliaris); conditions: amount of applied herbicide 320 g/ha
Summary of the method: as §3

[12] = tested on: velvetleaf; assay: Test Example 4: herbicidal effect by soil treatment (Table 19, symbol M); type: in vivo, velvetleaf (Abutilon theophrasti); conditions: amount of applied herbicide 320 g/ha
Summary of the method: as §3

[13] = tested on: chickweed; assay: Test Example 4: herbicidal effect by soil treatment (Table 19, symbol P); type: in vivo, common chickweed (Stellaria media); conditions: amount of applied herbicide 320 g/ha
Summary of the method: as §3

[14] = tested on: chickweed; assay: Test Example 5: herbicidal effect by foliage application, plastic box (Table 20, symbol P); type: in vivo, common chickweed (Stellaria media); conditions: foliage application, 320 g/ha, three weeks after application
Summary of the method: as §2

[15] = tested on: barnyard grass; assay: Test Example 4: herbicidal effect by soil treatment (Table 19, symbol H); type: in vivo, barnyard grass (Echinochloa crus-galli); conditions: amount of applied herbicide 320 g/ha
Summary of the method: as §3

[16] = tested on: wild oat; assay: Test Example 5: herbicidal effect by foliage application, plastic box (Table 20, symbol I); type: in vivo, wild oat (Avena fatua); conditions: foliage application, 320 g/ha, three weeks after application
Summary of the method: as §2

[17] = tested on: blackgrass; assay: Test Example 5: herbicidal effect by foliage application, plastic box (Table 20, symbol J); type: in vivo, blackgrass (Alopecurus myosuroides); conditions: foliage application, 320 g/ha, three weeks after application
Summary of the method: as §2

[18] = tested on: blackgrass; assay: Test Example 4: herbicidal effect by soil treatment (Table 19, symbol J); type: in vivo, blackgrass (Alopecurus myosuroides); conditions: amount of applied herbicide 320 g/ha
Summary of the method: as §3

[19] = tested on: barnyard grass; assay: Test Example 5: herbicidal effect by foliage application, plastic box (Table 20, symbol H); type: in vivo, barnyard grass (Echinochloa crus-galli); conditions: foliage application, 320 g/ha, three weeks after application
Summary of the method: as §2

[20] = tested on: Chinese sprangletop; assay: Test Example 3: herbicidal effect by foliage application, Wagner pot (Table 18, symbol D); type: in vivo, chinese sprangletop (Leptochloa chinensis); conditions: 320 g/ha
Summary of the method: (§4)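 Plants were sown in alluvial soil held under 0.1–0.5 cm standing water and grown 14 days in a greenhouse at 25–30 °C. An emulsifiable formulation, water-diluted to the set dose, was then sprayed onto the foliage, and effects were scored three weeks later using previously defined criteria.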

[21] = tested on: redroot pigweed; assay: Test Example 5: herbicidal effect by foliage application, plastic box (Table 20, symbol N); type: in vivo, redroot pigweed (Amaranthus retroflexus); conditions: foliage application, 320 g/ha, three weeks after application
Summary of the method: as §2

[22] = tested on: southern crabgrass; assay: Test Example 5: herbicidal effect by foliage application, plastic box (Table 20, symbol F); type: in vivo, southern crabgrass (Digitaria ciliaris); conditions: foliage application, 320 g/ha, three weeks after application
Summary of the method: as §2

[23] = tested on: rice flat sedge; assay: Test Example 3: herbicidal effect by foliage application, Wagner pot (Table 18, symbol E); type: in vivo, rice flat sedge (Cyperus iria); conditions: 320 g/ha
Summary of the method: as §4

[24] = tested on: windgrass; assay: Test Example 4: herbicidal effect by soil treatment (Table 19, symbol L); type: in vivo, windgrass (Apera spica-venti); conditions: amount of applied herbicide 320 g/ha
Summary of the method: as §3

[25] = tested on: persian speedwell; assay: Test Example 5: herbicidal effect by foliage application, plastic box (Table 20, symbol R); type: in vivo, Persian speedwell (Veronica persica); conditions: foliage application, 320 g/ha, three weeks after application
Summary of the method: as §2

[26] = tested on: lambsquarters; assay: Test Example 5: herbicidal effect by foliage application, plastic box (Table 20, symbol O); type: in vivo, lambsquarters (Chenopodium album); conditions: foliage application, 320 g/ha, three weeks after application
Summary of the method: as §2

[27] = tested on: barnyard grass; assay: Test Example 3: herbicidal effect by foliage application, Wagner pot (Table 18, symbol H); type: in vivo, barnyard grass (Echinochloa crus-galli); conditions: 320 g/ha
Summary of the method: as §4

[28] = tested on: redroot pigweed; assay: Test Example 4: herbicidal effect by soil treatment (Table 19, symbol N); type: in vivo, redroot pigweed (Amaranthus retroflexus); conditions: amount of applied herbicide 320 g/ha
Summary of the method: as §3

[29] = tested on: lambsquarters; assay: Test Example 4: herbicidal effect by soil treatment (Table 19, symbol O); type: in vivo, lambsquarters (Chenopodium album); conditions: amount of applied herbicide 320 g/ha
Summary of the method: as §3

[30] = tested on: late watergrass; assay: Test Example 1: herbicidal activity, application before weed generation under submerged conditions (Table 16, symbol A); type: in vivo, late watergrass (Echinochloa oryzicola); conditions: amount of applied herbicide 320 g/ha
Summary of the method: as §1

Cc1nn(C)c(=O)c(-c2c(-c3ccc4c(c3)OCCO4)sc3cc(Cl)ccc23)c1O [3-047]
Herbicidal effect, C: oval-leafed pondweed [1]: 0 (Herbicidal rate of 5% or less (almost no effect))
M: velvetleaf, herbicidal effect grade [2]: 1 (Herbicidal rate of 5% or more and less than 20%)
G: green foxtail, herbicidal effect grade [3]: 0 (Herbicidal rate of 5% or less (almost no effect))
K: Italian ryegrass, herbicidal effect grade [4]: 0 (Herbicidal rate of 5% or less (almost no effect))
K: Italian ryegrass, herbicidal effect grade [5]: 0 (Herbicidal rate of 5% or less (almost no effect))
Herbicidal effect, B: Japanese bulrush [6]: 2 (Herbicidal rate of 20% or more and less than 40%)
I: wild oat, herbicidal effect grade [7]: 0 (Herbicidal rate of 5% or less (almost no effect))
L: windgrass, herbicidal effect grade [8]: 0 (Herbicidal rate of 5% or less (almost no effect))
G: green foxtail, herbicidal effect grade [9]: 0 (Herbicidal rate of 5% or less (almost no effect))
R: persian speedwell, herbicidal effect grade [10]: 5 (Herbicidal rate of 90% or more (almost completely withered))
F: southern crabgrass, herbicidal effect grade [11]: 0 (Herbicidal rate of 5% or less (almost no effect))
M: velvetleaf, herbicidal effect grade [12]: 0 (Herbicidal rate of 5% or less (almost no effect))
P: chickweed, herbicidal effect grade [13]: 0 (Herbicidal rate of 5% or less (almost no effect))
P: chickweed, herbicidal effect grade [14]: 3 (Herbicidal rate of 40% or more and less than 70%)
H: barnyard grass, herbicidal effect grade [15]: 0 (Herbicidal rate of 5% or less (almost no effect))
I: wild oat, herbicidal effect grade [16]: 0 (Herbicidal rate of 5% or less (almost no effect))
J: blackgrass, herbicidal effect grade [17]: 0 (Herbicidal rate of 5% or less (almost no effect))
J: blackgrass, herbicidal effect grade [18]: 0 (Herbicidal rate of 5% or less (almost no effect))
H: barnyard grass, herbicidal effect grade [19]: 0 (Herbicidal rate of 5% or less (almost no effect))
herbicidal effect on Chinese sprangletop (D) [20]: 3 (Herbicidal rate of 40% or more and less than 70%)
N: redroot pigweed, herbicidal effect grade [21]: 0 (Herbicidal rate of 5% or less (almost no effect))
F: southern crabgrass, herbicidal effect grade [22]: 0 (Herbicidal rate of 5% or less (almost no effect))
herbicidal effect on rice flat sedge (E) [23]: 2 (Herbicidal rate of 20% or more and less than 40%)
L: windgrass, herbicidal effect grade [24]: 0 (Herbicidal rate of 5% or less (almost no effect))
R: persian speedwell, herbicidal effect grade [25]: 5 (Herbicidal rate of 90% or more (almost completely withered))
O: lambsquarters, herbicidal effect grade [26]: 2 (Herbicidal rate of 20% or more and less than 40%)
herbicidal effect on barnyard grass (H) [27]: 3 (Herbicidal rate of 40% or more and less than 70%)
N: redroot pigweed, herbicidal effect grade [28]: 1 (Herbicidal rate of 5% or more and less than 20%)
O: lambsquarters, herbicidal effect grade [29]: 3 (Herbicidal rate of 40% or more and less than 70%)
Herbicidal effect, A: late watergrass [30]: 3 (Herbicidal rate of 40% or more and less than 70%)

COCc1ccc2c(-c3c(O)c(C)nn(C)c3=O)c(-c3ccccc3OC)sc2c1 [3-137]
Herbicidal effect, C: oval-leafed pondweed [1]: 0 (Herbicidal rate of 5% or less (almost no effect))
M: velvetleaf, herbicidal effect grade [2]: 5 (Herbicidal rate of 90% or more (almost completely withered))
Herbicidal effect by soil treatment, G: green foxtail [3]: 1 (Herbicidal rate of 5% or more and less than 20%)
Herbicidal effect by soil treatment, K: Italian ryegrass [4]: 1 (Herbicidal rate of 5% or more and less than 20%)
K: Italian ryegrass, herbicidal effect grade [5]: 4 (Herbicidal rate of 70% or more and less than 90%)
Herbicidal effect, B: Japanese bulrush [6]: 0 (Herbicidal rate of 5% or less (almost no effect))
Herbicidal effect by soil treatment, I: wild oat [7]: 1 (Herbicidal rate of 5% or more and less than 20%)
L: windgrass, herbicidal effect grade [8]: 4 (Herbicidal rate of 70% or more and less than 90%)
G: green foxtail, herbicidal effect grade [9]: 5 (Herbicidal rate of 90% or more (almost completely withered))
Herbicidal effect by soil treatment, R: persian speedwell [10]: 4 (Herbicidal rate of 70% or more and less than 90%)
Herbicidal effect by soil treatment, F: southern crabgrass [11]: 0 (Herbicidal rate of 5% or less (almost no effect))
Herbicidal effect by soil treatment, M: velvetleaf [12]: 0 (Herbicidal rate of 5% or less (almost no effect))
Herbicidal effect by soil treatment, P: chickweed [13]: 5 (Herbicidal rate of 90% or more (almost completely withered))
P: chickweed, herbicidal effect grade [14]: 5 (Herbicidal rate of 90% or more (almost completely withered))
Herbicidal effect by soil treatment, H: barnyard grass [15]: 5 (Herbicidal rate of 90% or more (almost completely withered))
I: wild oat, herbicidal effect grade [16]: 4 (Herbicidal rate of 70% or more and less than 90%)
J: blackgrass, herbicidal effect grade [17]: 4 (Herbicidal rate of 70% or more and less than 90%)
Herbicidal effect by soil treatment, J: blackgrass [18]: 0 (Herbicidal rate of 5% or less (almost no effect))
H: barnyard grass, herbicidal effect grade [19]: 3 (Herbicidal rate of 40% or more and less than 70%)
herbicidal effect on Chinese sprangletop (D) [20]: 5 (Herbicidal rate of 90% or more (almost completely withered))
N: redroot pigweed, herbicidal effect grade [21]: 1 (Herbicidal rate of 5% or more and less than 20%)
F: southern crabgrass, herbicidal effect grade [22]: 5 (Herbicidal rate of 90% or more (almost completely withered))
herbicidal effect on rice flat sedge (E) [23]: 5 (Herbicidal rate of 90% or more (almost completely withered))
Herbicidal effect by soil treatment, L: windgrass [24]: 0 (Herbicidal rate of 5% or less (almost no effect))
R: persian speedwell, herbicidal effect grade [25]: 5 (Herbicidal rate of 90% or more (almost completely withered))
O: lambsquarters, herbicidal effect grade [26]: 0 (Herbicidal rate of 5% or less (almost no effect))
herbicidal effect on barnyard grass (H) [27]: 3 (Herbicidal rate of 40% or more and less than 70%)
Herbicidal effect by soil treatment, N: redroot pigweed [28]: 0 (Herbicidal rate of 5% or less (almost no effect))
Herbicidal effect by soil treatment, O: lambsquarters [29]: 0 (Herbicidal rate of 5% or less (almost no effect))
Herbicidal effect, A: late watergrass [30]: 3 (Herbicidal rate of 40% or more and less than 70%)

Source: patent US20230085307A1, “PYRIDAZINONE COMPOUND AND HERBICIDE” (NISSAN CHEMICAL CORPORATION, priority 2019, published 2023)
